The values below come from publication PMC12396409, “Screening and hit evaluation of a microbial metabolite library against the pathogenic Plasmodium falciparum and Toxoplasma gondii parasites” (International Journal for Parasitology: Drugs and Drug …, 2025).

For assay [1], the system named is P. falciparum 3D7 parasites. Description: P. falciparum growth inhibition assay, 1-cycle (72 h treatment), SYBR DNA staining (library screen at 2 μg/mL and dose-response). The class given is cell-based, Plasmodium falciparum. The note with it: for activity at 2 µg/mL: Plasmodium falciparum, 3D7, 72 h.
Assay [2] deals with P. falciparum 3D7 parasites. As to the kind of experiment: P. falciparum growth inhibition assay, 2-cycle (120 h treatment), delayed-death screen and dose-response. In kind it is cell-based, Plasmodium falciparum. The note with it: for activity at 2 µg/mL: Plasmodium falciparum, 3D7, 120 h.
Assay [3] deals with T. gondii RH strain (RH-Tub-eYFP) tachyzoites. Description: microbe, parasite or virus in culture. In kind it is cell-based, Toxoplasma gondii. The note with it: 72 h; for percent parasite growth at 2 µg/mL: Toxoplasma gondii.
The mark [4] stands for this setting: P. falciparum 3D7, 72 h, parasite screen at 2 μg/mL, % growth, replicate 1.
Where [5] appears, read: P. falciparum 3D7, 72 h, parasite screen at 2 μg/mL, % growth, replicate 2.
Setting [6] is: P. falciparum 3D7, 120 h, parasite screen at 2 μg/mL, % growth, replicate 1.
Where [7] appears, read: P. falciparum 3D7, 120 h, parasite screen at 2 μg/mL, % growth, replicate 2.
[8] abbreviates: T. gondii, parasite screen at 2 μg/mL, % growth, replicate 1.
The mark [9] stands for this setting: T. gondii, parasite screen at 2 μg/mL, % growth, replicate 2.
The mark [10] stands for this setting: library screen at 2 μg/mL, 72 h, % growth, replicate 1.
Setting [11] is: library screen at 2 μg/mL, 72 h, % growth, replicate 2.
Where [12] appears, read: library screen at 2 μg/mL, 120 h, % growth, replicate 1.
The mark [13] stands for this setting: library screen at 2 μg/mL, 120 h, % growth, replicate 2.
Setting [14] is: library screen at 2 μg/mL, % growth, replicate 1.
Setting [15] is: library screen at 2 μg/mL, % growth, replicate 2.
Setting [16] is: P. falciparum 3D7, 72 h, library screen at 2 μg/mL, % growth, replicate 1.
The mark [17] stands for this setting: P. falciparum 3D7, 72 h, library screen at 2 μg/mL, % growth, replicate 2.
Where [18] appears, read: P. falciparum 3D7, 120 h, library screen at 2 μg/mL, % growth, replicate 1.
Setting [19] is: P. falciparum 3D7, 120 h, library screen at 2 μg/mL, % growth, replicate 2.
The mark [20] stands for this setting: T. gondii RH, library screen at 2 μg/mL, % growth, replicate 1.
The mark [21] stands for this setting: T. gondii RH, library screen at 2 μg/mL, % growth, replicate 2.

Read-outs that look alike come from different tables or passages of the source.

`CCC1OC2(CCC1C)CC1CC(CC=C(C)CC(C)C=CC=C3COC4C(O)C(C)=CC(C(=O)O1)C34O)O2` (stereo not drawn) [BIA-M1052]: in assay [1] (setting [4]), the Pf_72h_%Growth_Rep1 amounted to 59.66%. In assay [1] (setting [5]), this compound registered a Pf_72h_%Growth_Rep2 of 59.04%. For the same compound, in assay [2] (setting [6]), the Pf_120h_%Growth_Rep1 is listed as 32.48%. For the same compound, the Pf_120h_%Growth_Rep2 in assay [2] (setting [7]) came to 50.00%. Besides, the Tg_72h_%Growth_Rep1 in assay [3] (setting [8]) came out at 117.80%. The same compound registered a Tg_72h_%Growth_Rep2 in assay [3] (setting [9]) of 80.70%.
In assay [1] (P. falciparum, 72 h, screen at 2 μg/mL, replicate 1), `CN1C(=O)c2ccccc2NC(=O)[C@]12O[C@@H]2c1ccccc1` [Cyclopenin] displayed a Pf_72h_%Growth_Rep1 of 83.83%. The Pf_72h_%Growth_Rep2 in assay [1] (P. falciparum, 72 h, screen at 2 μg/mL, replicate 2) is 77.00%. The compound also registered a Pf_120h_%Growth_Rep1 in assay [2] (P. falciparum, 120 h, screen at 2 μg/mL, replicate 1) of 83.48%. Further, the Pf_120h_%Growth_Rep2 in assay [2] (P. falciparum, 120 h, screen at 2 μg/mL, replicate 2) was 80.30%. The Tg_72h_%Growth_Rep1 in assay [3] (T. gondii, screen at 2 μg/mL, replicate 1) was 136.91%. The compound further had a Tg_72h_%Growth_Rep2 in assay [3] (T. gondii, screen at 2 μg/mL, replicate 2) of 103.54%.
As to `CC(C)CCCCCC=CCC(=O)N[C@@H](CC(=O)O)C(=O)N[C@@H]1C(=O)N2CCCC[C@@H]2C(=O)N[C@@H](C(C)C(=O)O)C(=O)N[C@@H](CC(=O)O)C(=O)NCC(=O)N[C@@H](CC(=O)O)C(=O)NCC(=O)N[C@H](C(C)N)C(=O)N[C@@H](C(C)C)C(=O)N2CCC[C@H]2C(=O)NC1C` (stereo partly drawn) [Aspartocin D], in assay [1] (setting [10]), the Pf_72h_%Growth_Rep1 amounted to 103.30%. For the same compound, in assay [1] (setting [11]), the Pf_72h_%Growth_Rep2 is listed as 89.43%. In assay [2] (setting [12]), this compound showed a Pf_120h_%Growth_Rep1 of 152.69%. The Pf_120h_%Growth_Rep2 in assay [2] (setting [13]) is 104.90%. Also, in assay [3] (setting [14]), the Tg_72h_%Growth_Rep1 stood at 85.89%. For the same compound, the Tg_72h_%Growth_Rep2 in assay [3] (setting [15]) is 91.61%.
In assay [1] (setting [16]), `CCOC(=O)c1c2ccocc-2oc1=O` [BIA-K1981] displayed a Pf_72h_%Growth_Rep1 of 72.42%. In assay [1] (setting [17]), this compound displayed a Pf_72h_%Growth_Rep2 of 90.55%. For the same compound, the Pf_120h_%Growth_Rep1 in assay [2] (setting [18]) was 169.06%. Also, the Pf_120h_%Growth_Rep2 in assay [2] (setting [19]) was 89.57%. In addition, the Tg_72h_%Growth_Rep1 in assay [3] (setting [20]) is given as 89.77%. The compound also yielded a Tg_72h_%Growth_Rep2 in assay [3] (setting [21]) of 96.78%.
`CN1CCC2(c3cccc4c3NC3N(C)CCC43C34CCN(C)C3Nc3ccccc34)c3ccccc3NC12` (stereo not drawn) [BIA-H1948] registered a Pf_72h_%Growth_Rep1 in assay [1] (setting [16]) of 8.04%. Moreover, the Pf_72h_%Growth_Rep2 in assay [1] (setting [17]) was 0.51%. This compound also returned a Pf_120h_%Growth_Rep1 in assay [2] (setting [18]) of 10.24%. In addition, in assay [2] (setting [19]), the Pf_120h_%Growth_Rep2 is -13.19%. In assay [3] (setting [20]), the Tg_72h_%Growth_Rep1 is given as 27.32%. The same compound registered a Tg_72h_%Growth_Rep2 in assay [3] (setting [21]) of 71.35%.
`C[C@@H]1Cc2c(Cl)cc(C(=O)N[C@@H](Cc3ccccc3)C(=O)O)c(O)c2C(=O)O1` [BIA-O1195] returned a Pf_72h_%Growth_Rep1 in assay [1] (setting [4]) of 84.32%. In addition, the Pf_72h_%Growth_Rep2 in assay [1] (setting [5]) is reported as 95.25%. The compound also displayed a Pf_120h_%Growth_Rep1 in assay [2] (setting [6]) of 103.82%. Besides, the Pf_120h_%Growth_Rep2 in assay [2] (setting [7]) is recorded as 136.40%. Further, the Tg_72h_%Growth_Rep1 in assay [3] (setting [8]) is 120.41%. Moreover, in assay [3] (setting [9]), the Tg_72h_%Growth_Rep2 was 95.09%.
Elaiophylin returned a Pf_72h_%Growth_Rep1 in assay [1] (setting [10]) of 6.63%. Also, in assay [1] (setting [11]), the Pf_72h_%Growth_Rep2 is 7.41%. This compound yielded a Pf_120h_%Growth_Rep1 in assay [2] (setting [12]) of 18.08%. Also, the Pf_120h_%Growth_Rep2 in assay [2] (setting [13]) amounted to 22.72%. Moreover, the Tg_72h_%Growth_Rep1 in assay [3] (setting [14]) is on record as -0.18%. In assay [3] (setting [15]), this compound had a Tg_72h_%Growth_Rep2 of 0.99%.
Consider `C[C@@](O)(/C=C/[C@H]1CC=CC(=O)O1)[C@@H](C[C@@H](O)\C=C/C=C\C=C\CO)OP(=O)(O)O` [Fostriecin], for which the activity at 2 µg/mL is 29.1% in assay [1] (library screen at 2 μg/mL, 72 h, % growth, replicate 1, read-out: Pf_72h_%Growth_Rep1); 38.8% in assay [1] (library screen at 2 μg/mL, 72 h, % growth, replicate 2, read-out: Pf_72h_%Growth_Rep2); 36.9% in assay [2] (library screen at 2 μg/mL, 120 h, % growth, replicate 1, read-out: Pf_120h_%Growth_Rep1); 56% in assay [2] (library screen at 2 μg/mL, 120 h, % growth, replicate 2, read-out: Pf_120h_%Growth_Rep2). Besides, the percent parasite growth at 2 µg/mL in assay [3] (library screen at 2 μg/mL, % growth, replicate 1, read-out: Tg_72h_%Growth_Rep1) was found to be 113%; in assay [3] (library screen at 2 μg/mL, % growth, replicate 2, read-out: Tg_72h_%Growth_Rep2) it was 102%.
For the compound `COc1cc(/C=C/C(=O)O)ccc1O` [Ferulic acid], the Pf_72h_%Growth_Rep1 in assay [1] (setting [10]) worked out at 82.96%. In assay [1] (setting [11]), this compound yielded a Pf_72h_%Growth_Rep2 of 102.51%. Moreover, the Pf_120h_%Growth_Rep1 in assay [2] (setting [12]) was 78.07%. In addition, the Pf_120h_%Growth_Rep2 in assay [2] (setting [13]) is 101.86%. The Tg_72h_%Growth_Rep1 in assay [3] (setting [14]) worked out at 101.17%. The compound further gave a Tg_72h_%Growth_Rep2 in assay [3] (setting [15]) of 94.55%.
In the case of `CC(=O)OC[C@]12CCC(C)=C[C@H]1O[C@@H]1[C@H](O)[C@@H](O)[C@@]2(C)[C@]12CO2` [Acetoxyscirpenol, 15-], the Pf_72h_%Growth_Rep1 in assay [1] (setting [10]) was 9.02%. In addition, the Pf_72h_%Growth_Rep2 in assay [1] (setting [11]) is recorded as 0.50%. Also, the Pf_120h_%Growth_Rep1 in assay [2] (setting [12]) is on record as 8.73%. Also, the Pf_120h_%Growth_Rep2 in assay [2] (setting [13]) was 7.76%. Moreover, the Tg_72h_%Growth_Rep1 in assay [3] (setting [14]) was -2.14%. The same compound showed a Tg_72h_%Growth_Rep2 in assay [3] (setting [15]) of 0.34%.
